Test results taken from patent US6518243B1, “Desleucyl glycopeptide antibiotics and methods of making same” (Trustees of Princeton University, priority 1999, dated 2003).

What follows are compounds tested on E. faecalis (CL 4877) (assay: Zone of inhibition screen, 96 well agar array format). Conditions: zone of inhibition relative to 1 mg/ml stock solution of p-chlorobiphenylvancomycin.
Type: cell-based
Set-up: scale not given here
Description: The antibacterial activity of each of the compounds against the bacterial strains E. faceium (ATCC 49624), S. epidermidis (ATCC 12228), S. aureus (ATCC 29213), E. faecalis (CL 4877) and E. faecalis (ATCC 292121) was tested. Each of the compounds was screened in a 96 will agar array format.

SMILES	zone score, E. faecalis CL 4877
CC1OC(OC2C(Oc3c4cc5cc3Oc3ccc(cc3Cl)C(O)C3NC(=O)C(NC(=O)C5NC(=O)C(CC(N)=O)NC(=O)C(NC(=O)C(O)CN)C(O)c5ccc(c(Cl)c5)O4)c4ccc(O)c(c4)-c4c(O)cc(O)cc4C(C(=O)O)NC3=O)OC(CO)C(O)C2O)CC(C)(NCc2ccc(-c3ccc(Cl)cc3)cc2)C1O (mixture of isomers) [Compound 60]	2
CC(=O)NCCCCC(NC(C)=O)C(=O)NC1C(=O)NC(CC(N)=O)C(=O)NC2C(=O)NC3C(=O)NC(C(=O)NC(C(=O)O)c4cc(O)cc(O)c4-c4cc3ccc4O)C(O)c3ccc(c(Cl)c3)Oc3cc2cc(c3OC2OC(CO)C(O)C(O)C2OC2CC(C)(NCc3ccc(-c4ccc(Cl)cc4)cc3)C(O)C(C)O2)Oc2ccc(cc2Cl)C1O (mixture of isomers) [Compound 114]	2
CC1OC(OC2C(Oc3c4cc5cc3Oc3ccc(cc3Cl)C(O)C(NC(=O)C3OC(O)C(O)C(O)C3O)C(=O)NC(CC(N)=O)C(=O)NC5C(=O)NC3C(=O)NC(C(=O)NC(C(=O)O)c5cc(O)cc(O)c5-c5cc3ccc5O)C(O)c3ccc(c(Cl)c3)O4)OC(CO)C(O)C2O)CC(C)(NCc2ccc(-c3ccc(Cl)cc3)cc2)C1O (mixture of isomers) [Compound 147]	2
CC1OC(OC2C(Oc3c4cc5cc3Oc3ccc(cc3Cl)C(O)C(NC(=O)C3OC(O)C(O)C(O)C3O)C(=O)NC(CC(N)=O)C(=O)NC5C(=O)NC3C(=O)NC(C(=O)NC(C(=O)O)c5cc(O)cc(O)c5-c5cc3ccc5O)C(O)c3ccc(c(Cl)c3)O4)OC(CO)C(O)C2O)CC(C)(NCc2ccc(-c3ccc(Cl)cc3)cc2)C1O (mixture of isomers) [Compound 148]	2
CC1OC(OC2C(Oc3c4cc5cc3Oc3ccc(cc3Cl)C(O)C3NC(=O)C(NC(=O)C5NC(=O)C(CC(N)=O)NC(=O)C(NC(=O)C(O)CO)C(O)c5ccc(c(Cl)c5)O4)c4ccc(O)c(c4)-c4c(O)cc(O)cc4C(C(=O)O)NC3=O)OC(CO)C(O)C2O)CC(C)(NCc2ccc(-c3ccc(Cl)cc3)cc2)C1O (mixture of isomers) [Compound 152]	2
CC(=O)NC(C)C(=O)NC1C(=O)NC(CC(N)=O)C(=O)NC2C(=O)NC3C(=O)NC(C(=O)NC(C(=O)O)c4cc(O)cc(O)c4-c4cc3ccc4O)C(O)c3ccc(c(Cl)c3)Oc3cc2cc(c3OC2OC(CO)C(O)C(O)C2OC2CC(C)(NCc3ccc(-c4ccc(Cl)cc4)cc3)C(O)C(C)O2)Oc2ccc(cc2Cl)C1O (mixture of isomers) [Compound 174]	2
CC(=O)NC(CO)C(=O)NC1C(=O)NC(CC(N)=O)C(=O)NC2C(=O)NC3C(=O)NC(C(=O)NC(C(=O)O)c4cc(O)cc(O)c4-c4cc3ccc4O)C(O)c3ccc(c(Cl)c3)Oc3cc2cc(c3OC2OC(CO)C(O)C(O)C2OC2CC(C)(NCc3ccc(-c4ccc(Cl)cc4)cc3)C(O)C(C)O2)Oc2ccc(cc2Cl)C1O (mixture of isomers) [Compound 178]	2
C[C@H]1O[C@H](O[C@H]2[C@H](Oc3c4cc5cc3Oc3ccc(cc3Cl)[C@@H](O)[C@@H](NC(=O)[C@@H](N)CC(=O)NC(c3ccccc3)(c3ccccc3)c3ccccc3)C(=O)N[C@@H](CC(N)=O)C(=O)N[C@H]5C(=O)N[C@H]3C(=O)N[C@H](C(=O)N[C@@H](C(=O)O)c5cc(O)cc(O)c5-c5cc3ccc5O)[C@H](O)c3ccc(c(Cl)c3)O4)O[C@H](CO)[C@@H](O)[C@@H]2O)C[C@@](C)(NCc2ccc(-c3ccc(Cl)cc3)cc2)[C@H]1O [Compound 2]	2
COc1ccc(C(SC[C@H](N)C(=O)N[C@H]2C(=O)N[C@@H](CC(N)=O)C(=O)N[C@H]3C(=O)N[C@H]4C(=O)N[C@H](C(=O)N[C@@H](C(=O)O)c5cc(O)cc(O)c5-c5cc4ccc5O)[C@H](O)c4ccc(c(Cl)c4)Oc4cc3cc(c4O[C@@H]3O[C@H](CO)[C@@H](O)[C@H](O)[C@H]3O[C@@H]3C[C@@](C)(NCc4ccc(-c5ccc(Cl)cc5)cc4)[C@@H](O)[C@@H](C)O3)Oc3ccc(cc3Cl)[C@H]2O)(c2ccccc2)c2ccccc2)cc1 [Compound 6]	2
CC(OC(c1ccccc1)(c1ccccc1)c1ccccc1)[C@H](N)C(=O)N[C@H]1C(=O)N[C@@H](CC(N)=O)C(=O)N[C@H]2C(=O)N[C@H]3C(=O)N[C@H](C(=O)N[C@@H](C(=O)O)c4cc(O)cc(O)c4-c4cc3ccc4O)[C@H](O)c3ccc(c(Cl)c3)Oc3cc2cc(c3O[C@@H]2O[C@H](CO)[C@@H](O)[C@H](O)[C@H]2O[C@@H]2C[C@@](C)(NCc3ccc(-c4ccc(Cl)cc4)cc3)[C@@H](O)[C@@H](C)O2)Oc2ccc(cc2Cl)[C@H]1O (stereo partly drawn) [Compound 11]	2
C[C@H]1O[C@H](O[C@H]2[C@H](Oc3c4cc5cc3Oc3ccc(cc3Cl)[C@@H](O)[C@@H](NC(=O)[C@H](N)CSC(c3ccccc3)(c3ccccc3)c3ccccc3)C(=O)N[C@@H](CC(N)=O)C(=O)N[C@H]5C(=O)N[C@H]3C(=O)N[C@H](C(=O)N[C@@H](C(=O)O)c5cc(O)cc(O)c5-c5cc3ccc5O)[C@H](O)c3ccc(c(Cl)c3)O4)O[C@H](CO)[C@@H](O)[C@@H]2O)C[C@@](C)(NCc2ccc(-c3ccc(Cl)cc3)cc2)[C@H]1O [Compound 14]	2
Cc1ccc(C(NCCCCC(N)C(=O)NC2C(=O)NC(CC(N)=O)C(=O)NC3C(=O)NC4C(=O)NC(C(=O)NC(C(=O)O)c5cc(O)cc(O)c5-c5cc4ccc5O)C(O)c4ccc(c(Cl)c4)Oc4cc3cc(c4OC3OC(CO)C(O)C(O)C3OC3CC(C)(NCc4ccc(-c5ccc(Cl)cc5)cc4)C(O)C(C)O3)Oc3ccc(cc3Cl)C2O)(c2ccccc2)c2ccccc2)cc1 (stereo not drawn) [Compound 40]	2
CC(=O)NCSC(C)(C)C(N)C(=O)NC1C(=O)NC(CC(N)=O)C(=O)NC2C(=O)NC3C(=O)NC(C(=O)NC(C(=O)O)c4cc(O)cc(O)c4-c4cc3ccc4O)C(O)c3ccc(c(Cl)c3)Oc3cc2cc(c3OC2OC(CO)C(O)C(O)C2OC2CC(C)(NCc3ccc(-c4ccc(Cl)cc4)cc3)C(O)C(C)O2)Oc2ccc(cc2Cl)C1O (stereo not drawn) [Compound 46]	2
CC(N)C(=O)NC1C(=O)NC(CC(N)=O)C(=O)NC2C(=O)NC3C(=O)NC(C(=O)NC(C(=O)O)c4cc(O)cc(O)c4-c4cc3ccc4O)C(O)c3ccc(c(Cl)c3)Oc3cc2cc(c3OC2OC(CO)C(O)C(O)C2OC2CC(C)(NCc3ccc(-c4ccc(Cl)cc4)cc3)C(O)C(C)O2)Oc2ccc(cc2Cl)C1O (stereo not drawn) [Compound 51]	2
CC(=O)NCSCC(N)C(=O)NC1C(=O)NC(CC(N)=O)C(=O)NC2C(=O)NC3C(=O)NC(C(=O)NC(C(=O)O)c4cc(O)cc(O)c4-c4cc3ccc4O)C(O)c3ccc(c(Cl)c3)Oc3cc2cc(c3OC2OC(CO)C(O)C(O)C2OC2CC(C)(NCc3ccc(-c4ccc(Cl)cc4)cc3)C(O)C(C)O2)Oc2ccc(cc2Cl)C1O (stereo not drawn) [Compound 55]	2
CC1OC(OC2C(Oc3c4cc5cc3Oc3ccc(cc3Cl)C(O)C3NC(=O)C(NC(=O)C5NC(=O)C(CC(N)=O)NC(=O)C(NC(=O)C(N)Cc5c[nH]cn5)C(O)c5ccc(c(Cl)c5)O4)c4ccc(O)c(c4)-c4c(O)cc(O)cc4C(C(=O)O)NC3=O)OC(CO)C(O)C2O)CC(C)(NCc2ccc(-c3ccc(Cl)cc3)cc2)C1O (stereo not drawn) [Compound 58]	2
CC1OC(OC2C(Oc3c4cc5cc3Oc3ccc(cc3Cl)C(O)C(NC(=O)C3CCC(O)N3C(=O)C3CCCN3C(=O)CN)C(=O)NC(CC(N)=O)C(=O)NC5C(=O)NC3C(=O)NC(C(=O)NC(C(=O)O)c5cc(O)cc(O)c5-c5cc3ccc5O)C(O)c3ccc(c(Cl)c3)O4)OC(CO)C(O)C2O)CC(C)(NCc2ccc(-c3ccc(Cl)cc3)cc2)C1O (stereo not drawn) [Compound 69]	2
CC(C)C(NC(=O)CN)C(=O)NC1C(=O)NC(CC(N)=O)C(=O)NC2C(=O)NC3C(=O)NC(C(=O)NC(C(=O)O)c4cc(O)cc(O)c4-c4cc3ccc4O)C(O)c3ccc(c(Cl)c3)Oc3cc2cc(c3OC2OC(CO)C(O)C(O)C2OC2CC(C)(NCc3ccc(-c4ccc(Cl)cc4)cc3)C(O)C(C)O2)Oc2ccc(cc2Cl)C1O (stereo not drawn) [Compound 70]	2
CC1OC(OC2C(Oc3c4cc5cc3Oc3ccc(cc3Cl)C(O)C3NC(=O)C(NC(=O)C5NC(=O)C(CC(N)=O)NC(=O)C(NC(=O)C(N)Cc5c[nH]cn5)C(O)c5ccc(c(Cl)c5)O4)c4ccc(O)c(c4)-c4c(O)cc(O)cc4C(C(=O)O)NC3=O)OC(CO)C(O)C2O)CC(C)(NCc2ccc(-c3ccc(Cl)cc3)cc2)C1O (stereo not drawn) [Compound 71]	2
C=CCOC(=O)NCC(N)C(=O)NC1C(=O)NC(CC(N)=O)C(=O)NC2C(=O)NC3C(=O)NC(C(=O)NC(C(=O)O)c4cc(O)cc(O)c4-c4cc3ccc4O)C(O)c3ccc(c(Cl)c3)Oc3cc2cc(c3OC2OC(CO)C(O)C(O)C2OC2CC(C)(NCc3ccc(-c4ccc(Cl)cc4)cc3)C(O)C(C)O2)Oc2ccc(cc2Cl)C1O (stereo not drawn) [Compound 92]	2
CC1OC(OC2C(Oc3c4cc5cc3Oc3ccc(cc3Cl)C(O)C3NC(=O)C(NC(=O)C5NC(=O)C(CC(N)=O)NC(=O)C(NC(=O)C5CC(=O)N5)C(O)c5ccc(c(Cl)c5)O4)c4ccc(O)c(c4)-c4c(O)cc(O)cc4C(C(=O)O)NC3=O)OC(CO)C(O)C2O)CC(C)(NCc2ccc(-c3ccc(Cl)cc3)cc2)C1O (stereo not drawn) [Compound 96]	2
COCCOCCOCC(=O)NC1C(=O)NC(CC(N)=O)C(=O)NC2C(=O)NC3C(=O)NC(C(=O)NC(C(=O)O)c4cc(O)cc(O)c4-c4cc3ccc4O)C(O)c3ccc(c(Cl)c3)Oc3cc2cc(c3OC2OC(CO)C(O)C(O)C2OC2CC(C)(NCc3ccc(-c4ccc(Cl)cc4)cc3)C(O)C(C)O2)Oc2ccc(cc2Cl)C1O (stereo not drawn) [Compound 101]	2
C=C(NC(C)=O)C(=O)NC1C(=O)NC(CC(N)=O)C(=O)NC2C(=O)NC3C(=O)NC(C(=O)NC(C(=O)O)c4cc(O)cc(O)c4-c4cc3ccc4O)C(O)c3ccc(c(Cl)c3)Oc3cc2cc(c3OC2OC(CO)C(O)C(O)C2OC2CC(C)(NCc3ccc(-c4ccc(Cl)cc4)cc3)C(O)C(C)O2)Oc2ccc(cc2Cl)C1O (stereo not drawn) [Compound 102]	2
CC1OC(OC2C(Oc3c4cc5cc3Oc3ccc(cc3Cl)C(O)C3NC(=O)C(NC(=O)C5NC(=O)C(CC(N)=O)NC(=O)C(NC(=O)c5cnccn5)C(O)c5ccc(c(Cl)c5)O4)c4ccc(O)c(c4)-c4c(O)cc(O)cc4C(C(=O)O)NC3=O)OC(CO)C(O)C2O)CC(C)(NCc2ccc(-c3ccc(Cl)cc3)cc2)C1O (stereo not drawn) [Compound 103]	2
